Results from patent US20240239790A1, “7-Morpholino-1,6-Naphthyridin-5-yl Derivatives and Pharmaceutical Compositions Thereof Useful as DNA-PK Inhibitor” (adMare Therapeutics Society, priority 2021, published 2024).
Like-named read-outs stand apart in the source and are kept apart here.

Legend:
[1] = molecular target: T1, DNA-PK phosphorylation at Serine 2056 (Homo sapiens, UniProt P78527); experiment: Cellular Assay for Inhibition of DNA-PK Phosphorylation at Serine 2056 in FaDu cells (sandwich ELISA, neocarzinostatin); assay type: cell-based; conditions: pSer2056 DNA-PK
T1 construct: FaDu cells were purchased from ATCC; host or cells: FaDu
How it was run: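 pSer2056 and total DNA-PK were measured by sandwich ELISA in BCA-normalised FaDu lysates. Cells had 1 h compound exposure (0.3% DMSO), then 2 h with 1 μg/mL final neocarzinostatin. IC50 was fitted (variable slope) to % inhibition scaled against NCS-stimulated and DMSO-only controls.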

[2] = molecular target: T2, DNA-PK (Homo sapiens, UniProt P78527); experiment: DNA-PK Assay for Biochemical Enzymatic Inhibition (ADP Glo Kinase assay); conditions: DNA-PK enzyme, Table 1
T2 construct: purchased Invitrogen PR9107A
Protocol: A biochemical assay was performed to identify IC50 values against DNA-PK activity in a two-step reaction with a kinase reaction followed by ADP Glo™ Kinase assay Kit (Promega V9102).
Three-fold serial dilutions of compounds in DMSO were prepared in kinase assay buffer (50 mM HEPES pH 7.5, 20 mM MgCl2, 100 mM KCl, 50 μM DTT, 10 μg/ml calf thymus DNA, 0.01% Tween 20). Kinase assay buffer was used to prepare compound treatments to 0.02% DMSO (dimethyl sulphoxide) content. DMSO controls were prepared to produce a maximum and minimum luminescence signal for normalization. Substrate (Anaspec, AS-60210-5) and ATP (Promega V9102) and ATP mix was prepared by dilution in kinase assay buffer for 434.4 μM and 64.4 μM final assay concentrations, respectively. Compounds and control were added to 25 ng DNA-PK enzyme (Invitrogen, PR9107A) diluted in kinase buffer in assay plate (Corning 267459) and incubated for 15 minutes at room temperature prior to addition of substrate and ATP mix.
Throughout the assay, each time a reagent was added to the microplate, it was centrifuged for 1 minute at 1300 rcf. All reagents were added, and incubations carried out at room temperature. The reaction was then incubated for 60 minutes. ADP-ATP standards at 0, 4, 10, 40, 80, and 100% ADP (prepared as specified in the ADP Glo™ Kinase assay kit) were also added to the microplate at a volume equal to the total kinase reaction. The ADP Glo™ Kinase Assay kit was then used to quantify DNA-PK activity: following the 60-minute incubation, a 1:1 volume of ADP Glo reagent was added to all wells, then following a further 45-minute incubation, a 1:1 volume of Kinase Detection Reagent was added to all wells. After this two-step assay, plates were incubated in a Synergy-Neo2 plate reader for 30 minutes with gentle shaking, followed by endpoint luminescent read Luminescence data was normalized by subtracting the background signal and expressing all background-adjusted values as a percentage of the average maximum signal. The data was then expressed as percent inhibition by subtracting from 100% (i.e. maximum luminescent signal will be 0% inhibition) and the resulting data plotted against ten concentration points on a logarithmic scale, using GraphPad Prism. Non-linear regression analysis was performed on each concentration response curve and the log [inhibitor] vs response—variable slope (four parameters) equation was selected to generate IC50 values.

[3] = tested on: pH2AX induction in HCT116 ATM-/- multicellular tumour spheroids; experiment: Prodrug Radiation Sensitization in Multicellular Tumour Spheroids, inhibition of pH2AX induction following radiation; assay type: cell-based; conditions: Homo sapiens, HCT-116, 20 Gy
How it was run: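 Endpoint: pH2AX (ser 139) or pDNA-PK (ser 2056) in cryosections fixed 1 or 2 h after 20 Gy, comparing oxygenated outer with hypoxic inner layers. Spheroids of ~0.5 mm (HCT116, FaDu; ATM-deficient cells used) held at 20% or 5% O2, 37 °C, stirred. Prodrug range 3.5 nM–10 μM.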

[4] = tested on: FaDu cell line; experiment: Prodrug Activation in Hypoxic Stirred Tumour Cell Suspensions; conditions: 10 μM, 4 hours
[5] = 5% O2, inner layers, read-out: Prodrug 5% O2 Inner layers EC50
[6] = 5% O2, outer layers, read-out: Prodrug 5% O2 Outer layers EC50
[7] = 20% O2, outer layers, read-out: Prodrug 20% O2 Outer layers EC50

Row | Structure (SMILES) | IC50 ([1]; neocarzinostatin 1 μg/mL, Table 1) | IC50 [2] | IC50 ([1]; Table 3) | EC50 [3, 5] | EC50 [3, 6] | EC50 [3, 7] | Fraction of prodrug converted to active form, Hypoxic 0.2% O2 [4] | Fraction of prodrug converted to active form, Oxic 5% O2 [4]
1 | CCOC(=O)c1cnc2cc(N3CCOCC3)nc(O[C@H]3CC[C@@H](n4ccnc4)CC3)c2c1 [Compound 163, ethyl 5-(((1s,4s)-4-(1H-imidazol-1-yl)cyclohexyl)oxy)-7-morpholino-1,6-naphthyridine-3-carboxylate] | 1 to 10 µM | 0.01 to 0.15 µM |  |  |  |  |  | 
2 | FC1(F)CN(c2cc3ncccc3c(O[C@H]3CC[C@@H](n4ccnc4)CC3)n2)CC(F)(F)O1 [Compound 13, 4-(5-(((1s,4s)-4-(1H-imidazol-1-yl)cyclohexyl)oxy)-1,6-naphthyridin-7-yl)-2,2,6,6-tetrafluoromorpholine] |  | 0.01 to 0.15 µM |  |  |  |  |  | 
3 | O=C(NC1CCOCC1)[C@H]1CC[C@@H](Oc2nc(N3CCOCC3)cc3ncccc23)CC1 [Compound 154b, (1S,4S)-4-((7-morpholino-1,6-naphthyridin-5-yl)oxy)-N-(tetrahydro-2H-pyran-4-yl)cyclohexane-1-carboxamide] |  | 0.01 to 0.15 µM |  |  |  |  |  | 
4 | CN(C)C(=N[C@H]1CC[C@@H](Oc2nc(N3CCOCC3)cc3ncccc23)CC1)N(C)C [Compound 129, 1,1,3,3-tetramethyl-2-((1s,4s)-4-((7-morpholino-1,6-naphthyridin-5-yl)oxy)cyclohexyl)guanidine] |  | 0.01 to 0.15 µM |  |  |  |  |  | 
5 | CN(C)C(=O)c1cnc2cc(N3CCOCC3)nc(O[C@H]3CC[C@@H](n4ccnc4)CC3)c2c1 [Compound 170, 5-(((1s,4s)-4-(1H-imidazol-1-yl)cyclohexyl)oxy)-N,N-dimethyl-7-morpholino-1,6-naphthyridine-3-carboxamide] |  | 0.01 to 0.15 µM |  |  |  |  |  | 
6 | CN(C)CC(=O)N[C@H]1CC[C@@H](Oc2nc(N3CCOCC3)cc3ncccc23)CC1 [Compound 106, 2-(Dimethylamino)-N-((1s,4s)-4-((7-morpholino-1,6-naphthyridin-5-yl)oxy)cyclohexyl)acetamide] |  | 0.01 to 0.15 µM |  |  |  |  |  | 
7 | CC(C)(O)C#Cc1cnc2cc(N3CCOCC3)nc(O[C@H]3CC[C@@H](n4ccnc4)CC3)c2c1 [Compound 159, 4-(5-(((1s,4s)-4-(1H-imidazol-1-yl)cyclohexyl)oxy)-7-morpholino-1,6-naphthyridin-3-yl)-2-methylbut-3-yn-2-ol] |  | 0.01 to 0.15 µM |  |  |  |  |  | 
8 | Cn1c(CN(c2cnc3cc(N4CCOCC4)nc(OC4CCC(Nc5ncc(N6CCN(CCF)CC6)cn5)CC4)c3c2)S(C)(=O)=O)cnc1[N+](=O)[O-] (stereo not drawn) [LFA2044, N-[5-[4-[[5-[4-(2-fluoroethyl)piperazin-1-yl]pyrimidin-2-yl]amino]cyclohexoxy]-7-morpholino-1,6-naphthyridin-3-yl]-N-[(3-methyl-2-nitro-imidazol-4-yl)methyl]methanesulfonamide] |  |  | 1 to 10 µM | 0.01 to 0.5 µM | 1 to 10 µM | 1 to 10 µM | C (C is 0.02 to 0.05) | D (D is 0 to 0.02)
9 | CC(c1cnc([N+](=O)[O-])n1C)N(c1cnc2cc(N3CCOCC3)nc(O[C@H]3CC[C@@H](Nc4ncc(OC5CCN(C)C5)cn4)CC3)c2c1)S(C)(=O)=O (stereo partly drawn) [LFA2068, N-[1-(3-methyl-2-nitro-imidazol-4-yl)ethyl]-N-[5-[4-[[5-(1-methylpyrrolidin-3-yl)oxypyrimidin-2-yl]amino]cyclohexoxy]-7-morpholino-1,6-naphthyridin-3-yl]methanesulfonamide] |  |  | 1 to 10 µM | 0.5 to 1 µM | 1 to 10 µM | 10 to 100 µM | B (B is 0.05 to 0.15) | D (D is 0 to 0.02)
10 | CC(Oc1cnc2cc(N3CCOCC3)nc(O[C@H]3CC[C@@H](c4cnccn4)CC3)c2c1)c1cnc([N+](=O)[O-])n1C (stereo partly drawn) [LFA2041, 4-[3-[1-(3-methyl-2-nitro-imidazol-4-yl)ethoxy]-5-(4-pyrazin-2-ylcyclohexoxy)-1,6-naphthyridin-7-yl]morpholine] |  |  | 10 to 30 µM | 0.01 to 0.5 µM | 1 to 10 µM | 1 to 10 µM | A (A is 0.15 to 1) | B (B is 0.05 to 0.15)
11 | CC(Oc1cnc2cc(N3CCOCC3)nc(OC3CCC(Nc4ncc(OCCN5CCN(C)CC5)cn4)CC3)c2c1)c1cnn(C)c1[N+](=O)[O-] (stereo not drawn) [LFA2089, N-[4-[[3-[1-(1-methyl-5-nitro-pyrazol-4-yl)ethoxy]-7-morpholino-1,6-naphthyridin-5-yl]oxy]cyclohexyl]-5-[2-(4-methylpiperazin-1-yl)ethoxy]pyrimidin-2-amine] |  |  | 1 to 10 µM | 1 to 10 µM | 1 to 10 µM | 1 to 10 µM | B (B is 0.05 to 0.15) | D (D is 0 to 0.02)
12 | CN1CCC(Oc2cnc(N[C@H]3CC[C@@H](Oc4nc(N5CCOCC5)cc5ncc(N(Cc6cnn(C)c6[N+](=O)[O-])S(C)(=O)=O)cc45)CC3)nc2)C1 (stereo partly drawn) [LFA2062, N-[(1-methyl-5-nitro-pyrazol-4-yl)methyl]-N-[5-[4-[[5-(1-methylpyrrolidin-3-yl)oxypyrimidin-2-yl]amino]cyclohexoxy]-7-morpholino-1,6-naphthyridin-3-yl]methanesulfonamide] |  |  | 1 to 10 µM | 0.01 to 0.5 µM | 0.5 to 1 µM | 1 to 10 µM | B (B is 0.05 to 0.15) | B (B is 0.05 to 0.15)
13 | CC(c1cnc([N+](=O)[O-])n1C)N(c1cnc2cc(N3CCOCC3)nc(O[C@H]3CC[C@@H](Nc4ncc(N5CCN(C)CC5)cn4)CC3)c2c1)S(C)(=O)=O (stereo partly drawn) [LFA2070, N-[1-(3-methyl-2-nitro-imidazol-4-yl)ethyl]-N-[5-[4-[[5-(4-methylpiperazin-1-yl)pyrimidin-2-yl]amino]cyclohexoxy]-7-morpholino-1,6-naphthyridin-3-yl]methanesulfonamide] |  |  | 10 to 30 µM | 0.01 to 0.5 µM | 1 to 10 µM | 10 to 100 µM | B (B is 0.05 to 0.15) | D (D is 0 to 0.02)
14 | CCNC(=O)c1cnc2cc(N3CCOCC3)nc(O[C@H]3CC[C@@H](n4ccnc4)CC3)c2c1 [Compound 168, 5-(((1s,4s)-4-(1H-imidazol-1-yl)cyclohexyl)oxy)-N-ethyl-7-morpholino-1,6-naphthyridine-3-carboxamide] |  | 0.01 to 0.15 µM |  |  |  |  |  | 
15 | CC(NS(=O)(=O)c1cnc2cc(N3CCOCC3)nc(O[C@H]3CC[C@@H](Nc4ncc(C(F)(F)F)cn4)CC3)c2c1)c1cnc([N+](=O)[O-])n1C (stereo partly drawn) [LFA2092, N-[1-(3-methyl-2-nitro-imidazol-4-yl)ethyl]-7-morpholino-5-[4-[[5-(trifluoromethyl)pyrimidin-2-yl]amino]cyclohexoxy]-1,6-naphthyridine-3-sulfonamide] |  |  | 10 to 30 µM | 10 to 100 µM | 10 to 100 µM | 1 to 10 µM | D (D is 0 to 0.02) | D (D is 0 to 0.02)
16 | CC(c1cnc([N+](=O)[O-])n1C)N(c1cnc2cc(N3CCOCC3)nc(O[C@H]3CC[C@@H](Nc4ncc(OCCN5CCOCC5)cn4)CC3)c2c1)S(C)(=O)=O (stereo partly drawn) [LFA2054, N-[1-(3-methyl-2-nitro-imidazol-4-yl)ethyl]-N-[7-morpholino-5-[4-[[5-(2-morpholinoethoxy)pyrimidin-2-yl]amino]cyclohexoxy]-1,6-naphthyridin-3-yl]methanesulfonamide] |  |  | 10 to 30 µM | 0.01 to 0.5 µM | 0.5 to 1 µM | 10 to 100 µM | B (B is 0.05 to 0.15) | D (D is 0 to 0.02)
